According to paper PMC6052416, “Selective inhibition of carbonic anhydrase-IX by sulphonamide derivatives induces pH and reactive oxygen species-mediated apoptosis in cervical cancer HeLa cells” (Journal of Enzyme Inhibition and Medicinal Chemistry, 2018):
Where two headings read alike, the source gives them in different places.

Tests used:
[1] = system: MDA-MB-231 (breast adenoma cancer cell); test: WST-1 cytotoxicity, MDA-MB-231; format: cell-based, human
Protocol: (§1) Cancer and normal cell lines were purchased from ATCC and stored in liquid nitrogen. HT-29 (colon adenoma cancer), HeLa (cervix adenoma cancer cell), MDA-MB-231 (breast adenoma cancer cell), HEK-293 (embryonic kidney epithelial cell) and PNT-1A (normal prostate cells) cell lines were incubated in DMEM: F-12 and RPMI-1640, including 10% foetal bovine serum (FBS), 100 µg/mL streptomycin/100 IU/mL penicillin, at 37 °C in an incubator containing 5% CO2, 95% air in a humid atmosphere.
(§2) The cytotoxic effects of the substances were evaluated with WST-1 kits (Roche, Germany) in accordance with the manufacturer’s protocols. The cells were planted in 96-well plates (10^4 cells in each well). After incubation for 24 h, the media were discarded and the substances and 5-Fu as the control drug, at doses of 0, 2.5, 5, 10, 25, 50, 100 and 200 µM, were incubated for 24, 48 and 72 h. WST-1 reactive of 10 µL was added to all wells. Following 4-h incubation, the measurements were taken on a plate reader (Spectramax M5) at wavelengths of 450 and 630 nm. Graphs were then created and the IC50 value of each substance was calculated.

HeLa cells [2] = test: Mitochondrial membrane potential (JC-1); format: cell-based, human; details: JC-1, 0–200 μM, 24 h
Protocol: Mitochondrial membrane potential (MMP) changes appearing in the intrinsic pathway of mitochondria were spectrophotometrically detected. MMP was measured in a fluorometry device (Spectramax, M5), at wavelengths of 490 nm (excitation) and 530 nm(emission) according to the fluorometric Mitochondria Staining Kit (Sigma, Germany, CS0390) protocol.

hCA IX = biological target: hCA IX; design: method as in PMID 25913118, PMID 26803577; details: cited from earlier work
HeLa cells [3] = test: Annexin-V FITC/PI apoptosis by flow cytometry; format: cell-based, human; details: Annexin-V FITC
Protocol: The apoptotic effect of the substances was explored with the commercial FITC Annexin-V Apoptosis Detection Kit I (BD Biosciences, New Jersey, USA) according to the manufacturer’s protocol. The cells were planted in 6-well plates (5 × 10^5 cells/well), and following 24-h incubation, sulphonamide derivative compounds at concentrations of 10–25–50 µM were administered, followed by incubation for 24 h. The cells were raised by trypsin handling and transferred into new tubes within 1X binding buffer, as 1 × 10^6 in each tube, which were incubated for 15 min at room temperature. 5 µL of fluorochrome-conjugated Annexin-V and 5 µL of propidium iodide dyes were then added. 100 µL 1X binding buffer was added to the cells, and they were then centrifuged at 1200 rpm, for 5 min. Finally, the cells were analysed in flow cytometry (BD Via, New Jersey, USA).

[4] = system: HEK-293 (embryonic kidney epithelial cell); test: WST-1 cytotoxicity, HEK-293; format: cell-based; details: normal cell
Protocol: as §1, §2

HeLa cells [5] = test: Intracellular ROS detection; format: cell-based, human; details: 0–200 μM
Protocol: Intracellular free radicals were measured using the Cellular Reactive Oxygen Species Detection Assay Commercial Kit (Red Fluorescence, Abcam, Cambridge, UK, 186027). In this kit, a fluorescence probe that is permeable to the cell is used. When the probe reacts with ROS, it produces red fluorescence. The process was applied following kit protocol. The cells were planted in black plates, as 3 × 10^4 in 100 µL, and incubated for 24 h. Sulphonamide compounds in PBS were administered at doses of 0–200 µM and incubated at 37 °C in an atmosphere of 5% CO2 for 1 h (protected from light). After the compounds were poured out, the wells were filled with 100 µL of ROS Deep Red Working Solution and incubated at 37 °C in an atmosphere of 5% CO2 for 1 h. A fluorometry device (Spectramax, M5) Ex/Em = 650/675 nm (cut off = 665 nm) was used to take the measurements.

[6] = system: HeLa (cervix adenoma cancer cell); test: WST-1 cytotoxicity, HeLa; format: cell-based, human
Protocol: as §1, §2

HeLa cells [7] = test: Cell cycle analysis by flow cytometry; format: cell-based, human; details: 24 h
Protocol: Cell cycle analysis was performed using BD Cycletest™ Plus DNA Reagent kit (BD Biosciences). According to the kit protocol, 1 × 10^6 cells were planted in 6-well plates, and following 24 h, the cells were incubated for 24 h, with sulphonamide derivative compounds at concentrations of 10–25–50 µM. The cells were raised with trypsin handling and centrifuged at 1500 rpm for 5 min. A suspension was formed with 1X binding buffer, and respectively, 250 µL solution A was added and incubated in a light-free environment for 10 min; 200 µL solution B was added and incubated in a light-free environment for 10 min; and 200 µL solution C was added and incubated in at +4° C in a protected-light environment for 10 min. All analyses were performed by flow cytometry (BD Via, New Jersey, USA).

HeLa cells [8] = test: DNA damage γ-H2AX immunofluorescence; format: cell-based, human; details: 24 h, concentration dependent
Protocol: HeLa cells (1 × 10^4/mL) were seeded in 12-well cell culture dishes and after 24 h, they were administered with the sulphonamide derivative compounds at doses of 10–25–50 µM and incubated for 24 h. The cells were washed with PBS and fixed with 100% methanol at −20 °C overnight, which was followed by PBS washing three times for 10 min for each washing. The cells were treated with 0.2% Triton X-100 in a shaker, at room temperature for 5 min. They were washed with PBS, and 1% BSA-containing PBS was then added, and incubation with primary mouse monoclonal anti-γ-H2AX antibody (Cell Signaling Technology, Danvers, MA) was applied at 37 °C for 1 h. The cells were washed with PBS for 5 min three times. Secondary goat anti-mouse Alexa-488-conjugated IgG (Invitrogen, Thermo Fisher Scientific, USA) was administered and the cells were incubated at 37 °C for 20 min, followed by PBS washing for 4–5 min three times. 1 mL 70% EtOH was added and, at +4 °C, released to incubation for 5 min. 1 mL 100% EtOH was added in a shaker, which was then incubated at room temperature for 1–2 min. The nucleus was stained with DAPI and the images were recorded using an Olympus Inverted Fluorescence Microscope (Olympus CKX53, DP73).

[9] = system: PNT-1A (normal prostate cells); test: WST-1 cytotoxicity, PNT-1A; format: cell-based; details: normal cell
Protocol: as §1, §2

With `NS(=O)(=O)c1ccc(CCN=Cc2cc(Br)ccc2O)cc1` [Compound 1] the IC50 ([1]; WST-1, 48 h, read-out: IC50 MDA-MB-231 48 h) was 68.8 ± 4.65 µM, the IC50 ([1]; WST-1, 72 h, read-out: IC50 MDA-MB-231 72 h) was 56.7 ± 3.55 µM and the “mitochondrial membrane potential (MMP)” value (HeLa cells [2]) was “reduced in a dose-dependent manner”. For the same molecule, the Ki (hCA IX) was 0.187 µM, the “dose from which an apoptotic effect was shown” value (HeLa cells [3]) was ≥ 25 µM and the IC50 ([4]; WST-1, 24 h, read-out: IC50 HEK-293 24 h) was 59.7 ± 11.2 µM. For the same molecule, the IC50 ([4]; WST-1, 48 h, read-out: IC50 HEK-293 48 h) was 83.6 ± 21.2 µM, the IC50 ([4]; WST-1, 72 h, read-out: IC50 HEK-293 72 h) was 35.8 ± 11.2 µM and the “intracellular ROS amount” value (HeLa cells [5]) was “dose-related increase”. It also gave an IC50 ([6]; WST-1, 24 h, mean of three experiments, read-out: IC50 HeLa 24 h) of 19.9 ± 1.1 µM, an IC50 ([6]; WST-1, 48 h, read-out: IC50 HeLa 48 h) of 18.8 ± 1.1 µM and an IC50 ([6]; WST-1, 72 h, read-out: IC50 HeLa 72 h) of 11.3 ± 1.1 µM. The S (HeLa cells [7]; 50μM) was 20.1%, the Sub-G1 (HeLa cells [7]; 50μM) was 10.8% and the “dose from which the cell division effect was seen” value (HeLa cells [7]) was ≥ 25 µM. The “DNA damage (γ-H2AX foci)” value (HeLa cells [8]) was “increasing γ-H2AX focus points”, the IC50 ([9]; WST-1, 48 h, read-out: IC50 PNT-1A 48 h) was 86.2 ± 12.1 µM and the IC50 ([9]; WST-1, 72 h, read-out: IC50 PNT-1A 72 h) was 197 ± 11.2 µM.
